Assay results from patent US20250230188A1, “METAGENOME-GUIDED BIOSYNTHESIS AND COMPOUNDS AND METHODS OF USE THEREOF” (The Rockefeller University, priority 2022, published 2025).
≈ marks a conversion by molar mass, not a printed value. Entries after “also recorded” stand apart in the source; their conditions may differ.

What follows are compounds tested on E. faecium com15 (assay: Syn-BNP MIC against ESKAPE pathogens: E. faecium). Settings: E. faecium com15, Gram-positive.
Format: cell-based, Enterococcus faecium
Experimental: (§1) All syn-BNPs, as well as the parent antibiotic albicidin were assayed for antimicrobial activity against the ESKAPE pathogens (Enterococcus faecium, Staphylococcus aureus, Klebsiella pneumoniae, Acinetobacter baumannii, Pseudomonas aeruginosa, and Enterobacter species), which are a collection of bacteria most commonly associated with antibacterial resistant nosocomial infections. […]
`COc1c(NC(=O)c2ccc(NC(=O)[C@H](CC#N)NC(=O)c3ccc(NC(=O)/C(C)=C/c4ccc(O)cc4)cc3)c(OC)c2O)ccc(C(=O)Nc2ccc(C(=O)O)cc2)c1O` [PABA34] gave an MIC greater than 8 µg/mL.
With `CO[C@@H](C(N)=O)[C@H](NC(=O)c1ccc(NC(=O)[C@@H](N)Cc2ccc(O)cc2)cc1)C(=O)Nc1ccc(C(=O)Nc2ccc(C(=O)Nc3ccc(C(=O)O)c(O)c3OC(C)C)c(O)c2OC(C)C)cc1` [PABA70] the MIC was 1 µg/mL (≈ 1.05 µM).

Same assay, conditions: Enterococcus faecium; E. faecium com15, Gram-positive; read-out: MIC
Work on `O=C(O)c1cn(C2CC2)c2cc(N3CCNCC3)c(F)cc2c1=O` [Ciprofloxacin, reference compound] yielded an MIC of 0.5 µg/mL (≈ 1.51 µM).

What follows are compounds tested on S. aureus SH1000 (assay: Syn-BNP MIC against ESKAPE pathogens: S. aureus). Settings: S. aureus SH1000, Gram-positive.
Format: cell-based, Staphylococcus aureus
Experimental: as §1
`COc1c(NC(=O)c2ccc(NC(=O)[C@H](CC#N)NC(=O)c3ccc(NC(=O)/C(C)=C/c4ccc(O)cc4)cc3)c(OC)c2O)ccc(C(=O)Nc2ccc(C(=O)O)cc2)c1O` [PABA34] showed an MIC greater than 8 µg/mL.
`CO[C@@H](C(N)=O)[C@H](NC(=O)c1ccc(NC(=O)[C@@H](N)Cc2ccc(O)cc2)cc1)C(=O)Nc1ccc(C(=O)Nc2ccc(C(=O)Nc3ccc(C(=O)O)c(O)c3OC(C)C)c(O)c2OC(C)C)cc1` [PABA70] showed an MIC of 1 µg/mL (≈ 1.05 µM).

Same assay, conditions: Staphylococcus aureus; S. aureus SH1000, Gram-positive; read-out: MIC
With `O=C(O)c1cn(C2CC2)c2cc(N3CCNCC3)c(F)cc2c1=O` [Ciprofloxacin, reference compound] the MIC was 0.5 µg/mL (≈ 1.51 µM).

Each compound was assayed on K. pneumoniae 10031 (assay: Syn-BNP MIC against ESKAPE pathogens: K. pneumoniae). Settings: K. pneumoniae 10031, Gram-negative.
Format: cell-based, Klebsiella pneumoniae
Experimental: (§2) All syn-BNPs, as well as the parent antibiotic albicidin were assayed for antimicrobial activity against the ESKAPE pathogens (Enterococcus faecium, Staphylococcus aureus, Klebsiella pneumoniae, Acinetobacter baumannii, Pseudomonas aeruginosa, and Enterobacter species), which are a collection of bacteria most commonly associated with antibacterial resistant nosocomial infections.
With `COc1c(NC(=O)c2ccc(NC(=O)[C@H](CC#N)NC(=O)c3ccc(NC(=O)/C(C)=C/c4ccc(O)cc4)cc3)c(OC)c2O)ccc(C(=O)Nc2ccc(C(=O)O)cc2)c1O` [PABA34] the MIC was greater than 8 µg/mL.
Work on `CO[C@@H](C(N)=O)[C@H](NC(=O)c1ccc(NC(=O)[C@@H](N)Cc2ccc(O)cc2)cc1)C(=O)Nc1ccc(C(=O)Nc2ccc(C(=O)Nc3ccc(C(=O)O)c(O)c3OC(C)C)c(O)c2OC(C)C)cc1` [PABA70] yielded an MIC of 1 µg/mL (≈ 1.05 µM).

These compounds were tested on A. baumannii (assay: Syn-BNP MIC against ESKAPE pathogens: A. baumannii). Settings: Gram-negative.
Format: cell-based, Acinetobacter baumannii
Experimental: as §2
In the case of `COc1c(NC(=O)c2ccc(NC(=O)[C@H](CC#N)NC(=O)c3ccc(NC(=O)/C(C)=C/c4ccc(O)cc4)cc3)c(OC)c2O)ccc(C(=O)Nc2ccc(C(=O)O)cc2)c1O` [PABA34], the MIC is reported as 2 µg/mL (≈ 2.37 µM).
With `CO[C@@H](C(N)=O)[C@H](NC(=O)c1ccc(NC(=O)[C@@H](N)Cc2ccc(O)cc2)cc1)C(=O)Nc1ccc(C(=O)Nc2ccc(C(=O)Nc3ccc(C(=O)O)c(O)c3OC(C)C)c(O)c2OC(C)C)cc1` [PABA70] the MIC was 4 µg/mL (≈ 4.21 µM).

Each compound was assayed on P. aeruginosa (assay: Syn-BNP MIC against ESKAPE pathogens: P. aeruginosa). Settings: Gram-negative.
Format: cell-based, Pseudomonas aeruginosa
Experimental: as §2
For `COc1c(NC(=O)c2ccc(NC(=O)[C@H](CC#N)NC(=O)c3ccc(NC(=O)/C(C)=C/c4ccc(O)cc4)cc3)c(OC)c2O)ccc(C(=O)Nc2ccc(C(=O)O)cc2)c1O` [PABA34], the MIC was 2 µg/mL (≈ 2.37 µM).
For `CO[C@@H](C(N)=O)[C@H](NC(=O)c1ccc(NC(=O)[C@@H](N)Cc2ccc(O)cc2)cc1)C(=O)Nc1ccc(C(=O)Nc2ccc(C(=O)Nc3ccc(C(=O)O)c(O)c3OC(C)C)c(O)c2OC(C)C)cc1` [PABA70], the MIC was greater than 8 µg/mL.

These compounds were tested on E. cloacae 13047 (assay: Syn-BNP MIC against ESKAPE pathogens: E. cloacae). Settings: E. cloacae 13047, Gram-negative.
Format: cell-based, Enterobacter cloacae
Experimental: as §2
`COc1c(NC(=O)c2ccc(NC(=O)[C@H](CC#N)NC(=O)c3ccc(NC(=O)/C(C)=C/c4ccc(O)cc4)cc3)c(OC)c2O)ccc(C(=O)Nc2ccc(C(=O)O)cc2)c1O` [PABA34] gave an MIC of 2 µg/mL (≈ 2.37 µM).
In the case of `CO[C@@H](C(N)=O)[C@H](NC(=O)c1ccc(NC(=O)[C@@H](N)Cc2ccc(O)cc2)cc1)C(=O)Nc1ccc(C(=O)Nc2ccc(C(=O)Nc3ccc(C(=O)O)c(O)c3OC(C)C)c(O)c2OC(C)C)cc1` [PABA70], the MIC is reported as greater than 8 µg/mL.

What follows are compounds tested on E. coli 25922 (assay: Syn-BNP MIC against E. coli). Settings: E. coli 25922, Gram-negative.
Format: cell-based, Escherichia coli
`CO[C@@H](C(N)=O)[C@H](NC(=O)c1ccc(NC(=O)[C@@H](N)Cc2ccc(O)cc2)cc1)C(=O)Nc1ccc(C(=O)Nc2ccc(C(=O)Nc3ccc(C(=O)O)c(O)c3OC(C)C)c(O)c2OC(C)C)cc1` [PABA70] was tested, and the MIC was 2 µg/mL (≈ 2.11 µM).

Same assay, conditions: Escherichia coli; E. coli 25922, Gram-negative; read-out: MIC
In the case of `O=C(O)c1cn(C2CC2)c2cc(N3CCNCC3)c(F)cc2c1=O` [Ciprofloxacin, reference compound], the MIC is reported as 0.0075 µg/mL (≈ 0.0226 µM).

The compounds below were run on E. coli-BL21 (pET28c) (assay: not given). Settings: empty vector.
Format: cell-based, Escherichia coli
Description: (§3) As circumventing common antibiotic resistance mechanisms was likely to play a key role in the natural selection of antibiotic congeners, the present studies investigated whether some of the congeners evolved to evade AlbD-mediated cleavage. To determine the susceptibility of the herein described BGC-inspired analogs to AlbD encoded resistance, the MIC of each syn-BNP against E. coli engineered to express AlbD was compared to that of E. coli containing an empty expression vector.
For `COc1c(NC(=O)/C(C)=C/c2ccc(O)cc2)ccc(C(=O)N[C@@H](CC#N)C(=O)Nc2ccc(C(=O)Nc3ccc(C(=O)Nc4ccc(C(=O)O)cc4)c(O)c3OC)c(O)c2OC)c1O` [PABA95-2], the MIC was 0.06 µg/mL (≈ 0.0675 µM).
`COc1c(NC(=O)c2ccc(NC(=O)[C@H](CC#N)NC(=O)c3ccc(NC(=O)/C(C)=C/c4ccc(O)cc4)cc3)c(OC)c2O)ccc(C(=O)Nc2ccc(C(=O)O)cc2)c1O` [PABA34] gave an MIC of 0.0075 µg/mL (≈ 0.0089 µM).
In the case of `CO[C@@H](C(N)=O)[C@H](NC(=O)c1ccc(NC(=O)[C@@H](N)Cc2ccc(O)cc2)cc1)C(=O)Nc1ccc(C(=O)Nc2ccc(C(=O)Nc3ccc(C(=O)O)c(O)c3OC(C)C)c(O)c2OC(C)C)cc1` [PABA70], the MIC is reported as 0.5 µg/mL (≈ 0.526 µM).

These compounds were tested on E. coli-BL21 (pET28c-AlbD) (assay: not given). Settings: AlbD expressing strain versus empty vector strain.
Format: cell-based, Escherichia coli
Description: as §3
`COc1c(NC(=O)/C(C)=C/c2ccc(O)cc2)ccc(C(=O)N[C@@H](CC#N)C(=O)Nc2ccc(C(=O)Nc3ccc(C(=O)Nc4ccc(C(=O)O)cc4)c(O)c3OC)c(O)c2OC)c1O` [PABA95-2] was tested, and the “Fold increase in MIC” value was 8 fold.
In the case of `COc1c(NC(=O)c2ccc(NC(=O)[C@H](CC#N)NC(=O)c3ccc(NC(=O)/C(C)=C/c4ccc(O)cc4)cc3)c(OC)c2O)ccc(C(=O)Nc2ccc(C(=O)O)cc2)c1O` [PABA34], the “Fold increase in MIC” value is reported as 4 fold.
With `CO[C@@H](C(N)=O)[C@H](NC(=O)c1ccc(NC(=O)[C@@H](N)Cc2ccc(O)cc2)cc1)C(=O)Nc1ccc(C(=O)Nc2ccc(C(=O)Nc3ccc(C(=O)O)c(O)c3OC(C)C)c(O)c2OC(C)C)cc1` [PABA70] the “Fold increase in MIC” value was greater than 128 fold.

Same assay, conditions: E. coli expressing AlbD versus empty vector
`COc1c(NC(=O)/C(C)=C/c2ccc(O)cc2)ccc(C(=O)N[C@@H](CC#N)C(=O)Nc2ccc(C(=O)Nc3ccc(C(=O)Nc4ccc(C(=O)O)cc4)c(O)c3OC)c(O)c2OC)c1O` [PABA95-2] was tested, and the “susceptibility to AlbD encoded resistance” value was “not susceptible to AlbD encoded resistance”.
With `COc1c(NC(=O)c2ccc(NC(=O)[C@H](CC#N)NC(=O)c3ccc(NC(=O)/C(C)=C/c4ccc(O)cc4)cc3)c(OC)c2O)ccc(C(=O)Nc2ccc(C(=O)O)cc2)c1O` [PABA34] the “susceptibility to AlbD encoded resistance” value was “resistant to proteolytic cleavage by AlbD; also recorded: not susceptible to AlbD encoded resistance”.

Same assay, conditions: E. coli-BL21 (pET28c-AlbD)
For `COc1c(NC(=O)/C(C)=C/c2ccc(O)cc2)ccc(C(=O)N[C@@H](CC#N)C(=O)Nc2ccc(C(=O)Nc3ccc(C(=O)Nc4ccc(C(=O)O)cc4)c(O)c3OC)c(O)c2OC)c1O` [PABA95-2], the MIC was 0.5 µg/mL (≈ 0.563 µM).
Work on `COc1c(NC(=O)c2ccc(NC(=O)[C@H](CC#N)NC(=O)c3ccc(NC(=O)/C(C)=C/c4ccc(O)cc4)cc3)c(OC)c2O)ccc(C(=O)Nc2ccc(C(=O)O)cc2)c1O` [PABA34] yielded an MIC of 0.03 µg/mL (≈ 0.0356 µM).
`CO[C@@H](C(N)=O)[C@H](NC(=O)c1ccc(NC(=O)[C@@H](N)Cc2ccc(O)cc2)cc1)C(=O)Nc1ccc(C(=O)Nc2ccc(C(=O)Nc3ccc(C(=O)O)c(O)c3OC(C)C)c(O)c2OC(C)C)cc1` [PABA70] showed an MIC greater than 64 µg/mL.

The compounds below were run against DNA gyrase (Escherichia coli, UniProt P0AES4+P0AES6) (assay: not given). Settings: FIG. 9.
Sequence of DNA gyrase (P0AES4 whole entry, one chain of several): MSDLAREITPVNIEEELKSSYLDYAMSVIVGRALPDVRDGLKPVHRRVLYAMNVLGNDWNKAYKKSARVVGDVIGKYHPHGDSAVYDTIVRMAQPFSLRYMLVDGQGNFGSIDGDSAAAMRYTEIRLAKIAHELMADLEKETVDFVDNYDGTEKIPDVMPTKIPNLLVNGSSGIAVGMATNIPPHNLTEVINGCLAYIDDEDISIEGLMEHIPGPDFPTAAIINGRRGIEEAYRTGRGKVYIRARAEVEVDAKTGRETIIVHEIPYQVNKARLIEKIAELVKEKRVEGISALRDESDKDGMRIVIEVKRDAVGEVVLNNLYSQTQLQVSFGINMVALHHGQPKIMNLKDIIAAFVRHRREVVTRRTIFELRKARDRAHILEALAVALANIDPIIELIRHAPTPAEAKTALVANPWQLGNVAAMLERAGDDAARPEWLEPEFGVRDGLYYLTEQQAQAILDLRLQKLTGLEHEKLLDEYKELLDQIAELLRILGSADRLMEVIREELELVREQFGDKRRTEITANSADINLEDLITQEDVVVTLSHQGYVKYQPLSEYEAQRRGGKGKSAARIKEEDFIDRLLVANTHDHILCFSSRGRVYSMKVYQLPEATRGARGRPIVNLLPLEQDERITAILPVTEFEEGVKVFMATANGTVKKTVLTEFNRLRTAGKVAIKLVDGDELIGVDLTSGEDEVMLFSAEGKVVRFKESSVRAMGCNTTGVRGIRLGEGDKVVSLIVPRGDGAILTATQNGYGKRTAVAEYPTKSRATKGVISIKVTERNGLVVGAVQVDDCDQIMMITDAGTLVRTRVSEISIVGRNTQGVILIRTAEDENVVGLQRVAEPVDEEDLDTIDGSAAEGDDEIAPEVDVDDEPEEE
Description: Further studies are focused on an investigation of other mutations via a clinical introduction of this class of antibiotics.
`COc1c(NC(=O)c2ccc(NC(=O)[C@H](CC#N)NC(=O)c3ccc(NC(=O)/C(C)=C/c4ccc(O)cc4)cc3)c(OC)c2O)ccc(C(=O)Nc2ccc(C(=O)O)cc2)c1O` [PABA34] was tested, and the “affinity for DNA gyrase” value was “retained a high affinity for DNA gyrase”.
